Results reported in ChEMBL document CHEMBL4673282, “Identification of a New Heterocyclic Scaffold for Inhibitors of the Polo-Box Domain of Polo-like Kinase 1” (J Med Chem, 2020).
In brackets after ≈: the same amount, converted by molar mass.

Legend:
[1] = Aqueous solubility of compound; format: physicochemical; conditions: buffer
[2] = Half life in rat liver microsomes at 1 uM measured up to 60 mins in presence of NADPH generating system; conditions: 1 h

SMILES | solubility [1] | t1/2 [2] [min]
NCCn1c(=O)c2cc(F)ccc2n2c(=S)[nH]nc12 | > 41 µg/mL | > 30
O=c1c2cc(F)ccc2n2c(=S)[nH]nc2n1CCCc1ccccc1 | < 1 µg/mL | 8.8
O=C(Cc1cccnc1)NCCCn1c(=O)c2cc(F)ccc2n2c(=S)[nH]nc12 |  | > 30
O=c1c2cc(I)ccc2n2c(=S)[nH]nc2n1CCc1ccccc1 | < 1 µg/mL | > 30
O=C(Cc1ccccn1)NCCCn1c(=O)c2cc(F)ccc2n2c(=S)[nH]nc12 |  | > 30
O=c1c2cc(F)ccc2n2c(=S)[nH]nc2n1CCP(=O)(O)O | > 51 µg/mL | 
CCCn1c(=O)c2ccccc2n2c(=S)[nH]nc12 |  | > 30
COc1ccccc1CC(=O)NCCCn1c(=O)c2cc(F)ccc2n2c(=S)[nH]nc12 | > 65 µg/mL | 16.1
O=C(NCCCn1c(=O)c2cc(F)ccc2n2c(=S)[nH]nc12)C1CCCNC1 (racemic) | 29.6 µg/mL (≈ 73.2 µM) | > 30
CS(=O)(=O)NCCn1c(=O)c2cc(F)ccc2n2c(=S)[nH]nc12 | > 53 µg/mL | > 30
CC(C)(C)OC(=O)CC[C@@H](NC(=O)OC(C)(C)C)C(=O)NCCCn1c(=O)c2cc(F)ccc2n2c(=S)[nH]nc12 | 20.4 µg/mL (≈ 35.3 µM) | 25.1
O=c1c2ccccc2n2c(=O)[nH]nc2n1CCc1ccccc1 | < 1 µg/mL | 
O=C(NCCCn1c(=O)c2cc(F)ccc2n2c(=S)[nH]nc12)c1ccc(Cn2ccnc2)cc1 |  | > 30
CC(C)CNC(=O)CCn1c(=O)c2ccccc2n2c(=S)[nH]nc12 | 30.8 µg/mL (≈ 89.2 µM) | 
Cc1ccc2c(c1)c(=O)n(CCc1ccccc1)c1n[nH]c(=S)n21 | < 1 µg/mL | > 30
O=C(Cc1cccc(C(F)(F)F)c1)NCCCn1c(=O)c2cc(F)ccc2n2c(=S)[nH]nc12 |  | 17.3
NCCOCCOCCOCCC(=O)NCCCn1c(=O)c2cc(F)ccc2n2c(=S)[nH]nc12 | 36.1 µg/mL (≈ 72.7 µM) | > 30

SMILES | solubility [1] | t1/2 [2] [min]
NCCCn1c(=O)c2cccc(F)c2n2c(=S)[nH]nc12 |  | > 30
O=c1c2cc(F)ccc2n2c(=S)[nH]nc2n1CCc1ccncc1 | 10.9 µg/mL (≈ 31.9 µM) | > 30
N[C@@H](CCC(=O)O)C(=O)NCCOCCOCCOCCOCCC(=O)NCCCn1c(=O)c2cc(F)ccc2n2c(=S)[nH]nc12 | > 99 µg/mL | > 30
CCCn1c(=O)c2ccccc2n2c(=S)n(CN(C)C3CC3)nc12 | Insoluble | 
CCCn1c(=O)c2ccccc2n2c(=S)n(CN(CC)CC3CC3)nc12 | 8.7 µg/mL (≈ 23.4 µM) | 
CC(C)OCCCn1c(=O)c2cc(Cl)ccc2n2c(=S)[nH]nc12 | 8.6 µg/mL (≈ 24.4 µM) | 
N#Cc1ccc(CC(=O)NCCCn2c(=O)c3cc(F)ccc3n3c(=S)[nH]nc23)cc1 |  | > 30
O=C(Cc1ccc(O)cc1)NCCCn1c(=O)c2cc(F)ccc2n2c(=S)[nH]nc12 |  | > 30
Cc1ccc(CC(=O)NCCCn2c(=O)c3cc(F)ccc3n3c(=S)[nH]nc23)cc1 |  | 23.9
N#Cc1ccccc1CC(=O)NCCCn1c(=O)c2cc(F)ccc2n2c(=S)[nH]nc12 |  | > 30
CC(C)n1c(=O)c2ccccc2n2c(=S)[nH]nc12 | 19.5 µg/mL (≈ 74.9 µM) | 
O=C(Cc1ccccc1C(F)(F)F)NCCCn1c(=O)c2cc(F)ccc2n2c(=S)[nH]nc12 |  | 3.7
CC(C)NC(=O)CCn1c(=O)c2cc(Cl)ccc2n2c(=S)[nH]nc12 | 8.1 µg/mL (≈ 22.1 µM) | 
COc1ccc(CC(=O)NCCCn2c(=O)c3cc(F)ccc3n3c(=S)[nH]nc23)cc1 |  | > 30
O=C(Cc1ccc(F)cc1)NCCCn1c(=O)c2cc(F)ccc2n2c(=S)[nH]nc12 |  | 26.3
O=C(Cc1ccccc1)NCCCn1c(=O)c2cc(F)ccc2n2c(=S)[nH]nc12 |  | 18.7
CC(C)(C)OC(=O)Nc1ccc(CC(=O)NCCCn2c(=O)c3cc(F)ccc3n3c(=S)[nH]nc23)cc1 |  | > 30
